Measurements: patent publication US9051321B2, “Heterocyclic acrylamides and their use as pharmaceuticals” (FAB PHARMA S.A.S, priority 2009, dated 2015)

Key:
[1] = system: methicillin susceptible Staphylococcus aureus strain ATCC 29213; assay: In vivo antibacterial activity, experimental model of thigh infection in neutropenic mice; conditions: 1.5 h after infection, neutropenic female Swiss mice, 20 h
HSA (human albumin) = HSA (human albumin) (Homo sapiens (Human), UniProt P02768); assay: HSA binding analysis using a chiral HSA column; assay type: in vitro ADME; conditions: for k′ (capacity factor): 37° C., pH 7.0, k′=(Tr-T0)/T0; for HSA binding Conclusion: classification of AB %
HSA (human albumin), sequence (P02768 25-609): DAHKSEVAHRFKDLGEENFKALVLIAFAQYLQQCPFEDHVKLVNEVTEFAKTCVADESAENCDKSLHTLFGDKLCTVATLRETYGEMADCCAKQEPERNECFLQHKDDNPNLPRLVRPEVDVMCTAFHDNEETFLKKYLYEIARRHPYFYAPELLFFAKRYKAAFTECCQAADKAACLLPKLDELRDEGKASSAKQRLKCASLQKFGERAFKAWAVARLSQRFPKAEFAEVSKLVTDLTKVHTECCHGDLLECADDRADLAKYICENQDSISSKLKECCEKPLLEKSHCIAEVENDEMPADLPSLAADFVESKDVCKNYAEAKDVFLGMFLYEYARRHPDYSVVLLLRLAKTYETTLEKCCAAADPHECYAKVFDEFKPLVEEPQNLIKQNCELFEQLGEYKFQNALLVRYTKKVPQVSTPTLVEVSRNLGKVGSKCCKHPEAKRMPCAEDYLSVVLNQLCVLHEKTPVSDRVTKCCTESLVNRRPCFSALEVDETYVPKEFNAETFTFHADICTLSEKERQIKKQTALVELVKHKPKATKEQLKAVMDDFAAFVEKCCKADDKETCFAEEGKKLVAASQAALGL
From the text: The test system used in this analysis was an HSA chiral column.
The relationship between the retention time (Tr) and percentage of albumin binding (AB %) depended on the dead time (T0) and the capacity factor (k′): AB %=[k′/(k′+1)]*100 • where k′=(Tr-T0)/T0

E. coli FabI = E. coli FabI (Escherichia coli (strain K12), UniProt P0AEK4); conditions: cited from earlier work
E. coli FabI, sequence (P0AEK4 whole entry): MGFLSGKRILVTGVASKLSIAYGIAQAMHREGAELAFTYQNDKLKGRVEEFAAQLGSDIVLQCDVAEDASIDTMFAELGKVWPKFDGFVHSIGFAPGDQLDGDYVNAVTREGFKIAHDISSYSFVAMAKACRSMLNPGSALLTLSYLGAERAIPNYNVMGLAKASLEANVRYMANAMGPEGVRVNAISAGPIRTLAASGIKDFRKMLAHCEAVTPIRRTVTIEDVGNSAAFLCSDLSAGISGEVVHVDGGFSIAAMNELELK

With `O=C1CCc2cc(/C=C/C(=O)N3CC(OCc4cccs4)C3)cnc2N1` [Example 12, 6-{(1E)-3-Oxo-3-[3-(2-thienylmethoxy)azetidin-1-yl]prop-1-en-1-yl}-3,4-dihydro-1,8-naphthyridin-2(1H)-one] the “in vivo antibacterial activity (bacterial burden in the thigh of infected mice)” value ([1]; 100 mg/kg orally) was “able to protect mice against thigh dissemination”, the “affinity in vitro to human albumin” value (HSA (human albumin)) was “low affinity” and the “k′ (capacity factor)” value (HSA (human albumin)) was 0.826. For the same compound, the “HSA binding Conclusion” value (HSA (human albumin)) was “Low binding (AB≦75%: Low binding)”.
In the case of `CCCCCOC1CN(C(=O)/C=C/c2cnc3c(c2)CCC(=O)N3)C1` [Example 15, 6-{(1E)-3-Oxo-3-[3-(pentyloxy)azetidin-1-yl]prop-1-en-1-yl}-3,4-dihydro-1,8-naphthyridin-2(1H)-one], the “in vivo antibacterial activity (bacterial burden in the thigh of infected mice)” value ([1]; 50 mg/kg subcutaneously) is reported as “able to protect mice against thigh dissemination”.
For `O=C1CCc2cc(/C=C/C(=O)N3CC(OCCc4cccs4)C3)cnc2N1` [Example 29, (E)-6-(3-Oxo-3-(3-(2-(thiophen-2-yl)ethoxy)azetidin-1-yl)prop-1-enyl)-3,4-dihydro-1,8-naphthyridin-2(1H)-one], the “affinity in vitro to human albumin” value (HSA (human albumin)) was “low affinity”, the “k′ (capacity factor)” value (HSA (human albumin)) was 1.259 and the “HSA binding Conclusion” value (HSA (human albumin)) was “Low binding (AB≦75%: Low binding)”.
In the case of `O=C1CCc2cc(/C=C/C(=O)N3CC(c4cc5ccccc5o4)C3)cnc2N1` [Example 59, (E)-6-(3-(3-(Benzofuran-2-yl)azetidin-1-yl)-3-oxoprop-1-enyl)-3,4-dihydro-1,8-naphthyridin-2(1H)-one], the “affinity in vitro to human albumin” value (HSA (human albumin)) is reported as “moderate affinity”, the “k′ (capacity factor)” value (HSA (human albumin)) is reported as 4.678 and the “HSA binding Conclusion” value (HSA (human albumin)) is reported as “Moderate”.
For `CCCCOC1CN(C(=O)/C=C/c2cnc3c(c2)CC2(CCN(C)CC2)C(=O)N3)C1` [Example 63, (E)-6-(3-(3-Butoxyazetidin-1-yl)-3-oxoprop-1-enyl)-1′-methyl-1H-spiro[[1,8]naphthyridine-3,4′-piperidin]-2(4H)-one], the “affinity in vitro to human albumin” value (HSA (human albumin)) was “low affinity”, the “k′ (capacity factor)” value (HSA (human albumin)) was 1.288 and the “HSA binding Conclusion” value (HSA (human albumin)) was “Low binding (AB≦75%: Low binding)”.
For `Cc1c(C2CN(C(=O)/C=C/c3cnc4c(c3)CCC(=O)N4)C2)oc2ccccc12` [Example 67, (E)-6-(3-(3-(3-Methylbenzofuran-2-yl)azetidin-1-yl)-3-oxoprop-1-enyl)-3,4-dihydro-1,8-naphthyridin-2(1H)-one], the “affinity in vitro to human albumin” value (HSA (human albumin)) was “moderate affinity”, the “k′ (capacity factor)” value (HSA (human albumin)) was 8.360 and the “HSA binding Conclusion” value (HSA (human albumin)) was “Moderate”.
In the case of `Cc1c(C2CN(C(=O)/C=C/c3cnc4c(c3)CC3(CCN(C)CC3)C(=O)N4)C2)oc2ccccc12` [Example 68, (E)-1′-Methyl-6-(3-(3-(3-methylbenzofuran-2-yl)azetidin-1-yl)-3-oxoprop-1-enyl)-1H-spiro[[1,8]naphthyridine-3,4′-piperidin]-2(4H)-one], the “affinity in vitro to human albumin” value (HSA (human albumin)) is reported as “high affinity”, the “k′ (capacity factor)” value (HSA (human albumin)) is reported as 11.216 and the “HSA binding Conclusion” value (HSA (human albumin)) is reported as “High binding (AB≦90%: High binding)”.
With `CN1CCC2(CC1)Cc1cc(/C=C/C(=O)N3CC(c4cc5ccccc5o4)C3)cnc1NC2=O` [Example 69, (E)-6-(3-(3-(Benzofuran-2-yl)azetidin-1-yl)-3-oxoprop-1-en-1-yl)-1′-methyl-1H-spiro[[1,8]naphthyridine-3,4′-piperidin]-2(4H)-one] the “affinity in vitro to human albumin” value (HSA (human albumin)) was “moderate affinity”, the “k′ (capacity factor)” value (HSA (human albumin)) was 7.730 and the “HSA binding Conclusion” value (HSA (human albumin)) was “Moderate”.
With `CCCO/N=C(\C)C1CN(C(=O)/C=C/c2cnc3c(c2)CCC(=O)N3)C1` [Example 70, 6-((E)-3-Oxo-3-(3-((E)-1-(propoxyimino)ethyl)azetidin-1-yl)prop-1-enyl)-3,4-dihydro-1,8-naphthyridin-2(1H)-one] the “affinity in vitro to human albumin” value (HSA (human albumin)) was “low affinity”, the “k′ (capacity factor)” value (HSA (human albumin)) was 0.580 and the “HSA binding Conclusion” value (HSA (human albumin)) was “Low binding (AB≦75%: Low binding)”.
For `CCCO/N=C(/C)C1CN(C(=O)/C=C/c2cnc3c(c2)CCC(=O)N3)C1` [Example 71, 6-((E)-3-Oxo-3-(3-((Z)-1-(propoxyimino)ethyl)azetidin-1-yl)prop-1-enyl)-3,4-dihydro-1,8-naphthyridin-2(1H)-one], the “affinity in vitro to human albumin” value (HSA (human albumin)) was “low affinity”, the “k′ (capacity factor)” value (HSA (human albumin)) was 0.404 and the “HSA binding Conclusion” value (HSA (human albumin)) was “Low binding (AB≦75%: Low binding)”.
In the case of `Oc1cc(Cl)ccc1Oc1ccc(Cl)cc1Cl` [Triclosan], the “type of inhibition of E. coli FabI” value (E. coli FabI) is given as “reversible, tight-binding inhibitor”.
